In ChEMBL document CHEMBL1944522, “Design, synthesis, and anaplastic lymphoma kinase (ALK) inhibitory activity for a novel series of 2,4,8,22-tetraazatetracyclo[14.3.1.1³,⁷.1⁹,¹³]docosa-1(20),3(22),4,6,9(21),10,12,16,18-nonaene macrocycles” (J Med Chem, 2012):

molecular target: ALK tyrosine kinase receptor (Homo sapiens, UniProt Q9UM73); assay: Inhibition of baculovirus expressed GST-tagged human ALK cytoplasmic domain using PLCgamma as substrate after 15 mins by time-resolved fluorescence analysis
Sequence (Q9UM73 whole entry, the tested form may be a part): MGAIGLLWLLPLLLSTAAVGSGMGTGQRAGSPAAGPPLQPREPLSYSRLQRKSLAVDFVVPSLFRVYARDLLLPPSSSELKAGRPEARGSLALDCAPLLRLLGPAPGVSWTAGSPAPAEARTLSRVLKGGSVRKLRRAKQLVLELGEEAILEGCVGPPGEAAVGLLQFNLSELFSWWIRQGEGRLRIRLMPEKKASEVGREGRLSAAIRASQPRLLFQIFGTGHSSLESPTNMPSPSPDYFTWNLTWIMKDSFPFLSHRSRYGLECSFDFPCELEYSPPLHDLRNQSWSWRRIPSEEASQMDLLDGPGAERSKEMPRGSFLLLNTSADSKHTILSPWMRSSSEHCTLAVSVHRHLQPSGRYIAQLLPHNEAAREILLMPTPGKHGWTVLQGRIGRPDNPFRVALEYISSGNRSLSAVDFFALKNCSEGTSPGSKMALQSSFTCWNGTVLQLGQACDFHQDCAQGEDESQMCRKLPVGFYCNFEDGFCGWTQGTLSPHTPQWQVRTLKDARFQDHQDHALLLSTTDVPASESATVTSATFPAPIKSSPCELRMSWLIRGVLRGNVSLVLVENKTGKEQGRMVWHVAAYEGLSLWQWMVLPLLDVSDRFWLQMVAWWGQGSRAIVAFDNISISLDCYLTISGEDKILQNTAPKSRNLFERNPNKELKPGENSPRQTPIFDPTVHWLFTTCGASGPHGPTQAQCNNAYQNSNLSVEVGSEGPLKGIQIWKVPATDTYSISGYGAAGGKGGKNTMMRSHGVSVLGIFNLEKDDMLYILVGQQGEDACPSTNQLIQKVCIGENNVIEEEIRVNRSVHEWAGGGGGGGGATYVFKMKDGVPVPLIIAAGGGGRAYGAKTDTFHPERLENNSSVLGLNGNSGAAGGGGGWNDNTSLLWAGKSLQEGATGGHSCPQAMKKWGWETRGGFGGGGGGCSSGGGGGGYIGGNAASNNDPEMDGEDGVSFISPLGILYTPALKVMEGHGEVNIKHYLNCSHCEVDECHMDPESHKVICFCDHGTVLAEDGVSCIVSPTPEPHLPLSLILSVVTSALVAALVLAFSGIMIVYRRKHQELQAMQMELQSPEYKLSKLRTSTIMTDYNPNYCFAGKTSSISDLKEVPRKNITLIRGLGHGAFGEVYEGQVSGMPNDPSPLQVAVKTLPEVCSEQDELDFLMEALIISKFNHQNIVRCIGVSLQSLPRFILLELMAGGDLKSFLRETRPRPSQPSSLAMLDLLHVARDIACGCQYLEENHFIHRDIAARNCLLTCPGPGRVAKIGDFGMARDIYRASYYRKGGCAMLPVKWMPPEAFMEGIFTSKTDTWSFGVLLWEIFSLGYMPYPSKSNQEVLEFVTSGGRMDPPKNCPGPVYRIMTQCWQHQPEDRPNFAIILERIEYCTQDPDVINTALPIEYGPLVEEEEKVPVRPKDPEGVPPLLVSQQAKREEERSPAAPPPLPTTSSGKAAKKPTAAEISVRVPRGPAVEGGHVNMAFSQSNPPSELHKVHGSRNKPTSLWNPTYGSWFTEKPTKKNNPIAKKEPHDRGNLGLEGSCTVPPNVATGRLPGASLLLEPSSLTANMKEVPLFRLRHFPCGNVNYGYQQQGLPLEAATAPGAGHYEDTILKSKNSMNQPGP

Row | IC50 | Compound
1 | > 10 µM | Clc1cnc2nc1Nc1cccc(c1)CCc1cccc(c1)N2
2 | > 10 µM | Clc1cnc2nc1Nc1cccc(c1)CCc1cc(ccc1N1CCOCC1)N2
3 | > 1 µM | COc1ccc2cc1Nc1nc(ncc1Cl)Nc1ccc(N3CCOCC3)c(c1)CC2
